From US11834453B2, “Substituted pyrimido[5,4-d]pyrimidines as HER2 inhibitors” (Array BioPharma Inc., priority 2020, dated 2023)
Where two headings read alike, the source gives them in different places.

Assays:
ErbB2 WT = ErbB2 WT (Homo sapiens (Human), UniProt P04626); assay: ErbB enzyme assay (CisBio HTRF KinEASE-TK), Assay 2; assay type: biochemical
Outline: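 ErbB2 phosphorylates 250 nM biotin-TK substrate at 1 mM ATP in 25 mM HEPES pH 7.4, 10 mM MgCl2, 0.01% Triton X-100 and 2% DMSO, for 30 min at 22 °C. Product is detected by HTRF with Sa-XL665 and TK-Ab-Cryptate. Percent of control is set by DMSO-only wells and pre-quenched wells.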

[1] = biological target: ErbB2 with Exon 20 YVMA insertion (HER2-YVMA) (Homo sapiens (Human), UniProt P04626, INS775YVMA); assay: Cellular phosphorylation assay, constitutive ErbB2 phosphorylation (Y1196) in engineered NIH 3T3 cells, Assay 4; assay type: cell-based
Outline: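 Engineered NIH 3T3 cells expressing HER2-YVMA treated with compounds 1 h at 37 °C, then formaldehyde-fixed and methanol-permeabilized. pErbB2 Y1196 detected by in-cell infrared immunofluorescence, normalized to GAPDH. IC50 from the normalized curves.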

[2] = biological target: ErbB2 insYVMA (HER2-YVMA, SEQ ID NO: 2) (Homo sapiens, UniProt P04626, INS775YVMA/P1170A); assay: biochemical; settings: ErbB2 insYVMA enzyme assay
EGFR = EGFR (Homo sapiens (Human), UniProt P00533); assay: ErbB enzyme assay (CisBio HTRF KinEASE-TK), Assay 3; assay type: biochemical
Outline: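 Inhibition is measured as reduced peptide phosphorylation by HTRF KinEASE-TK at 1 mM ATP and 250 nM substrate, 30 min at 22 °C. Values are IC50s from a 4-parameter logistic fit.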

MDR1 (P-gp) = MDR1 (P-gp) (Homo sapiens (Human), UniProt P08183); assay: MDR1 transfected LLC-PK1 permeability/efflux, Assay 6; settings: pig
EGFR wild type (EGFR WT) = EGFR wild type (EGFR WT) (Homo sapiens (Human), UniProt P00533); assay: Cellular phosphorylation assay, EGF-stimulated EGFR phosphorylation in engineered NIH 3T3 cells, Phospho-EGFR DuoSet IC ELISA, Assay 5; assay type: cell-based
Outline: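 NIH 3T3 cells expressing EGFR WT (20,000/well, attached overnight) were exposed to serially diluted compound for 1 h at 37 °C, then stimulated with 100 ng/ml rEGF for 10 min. Phospho-EGFR in lysates measured by sandwich ELISA optical density; IC50 from curves.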

BCRP = BCRP (Homo sapiens (Human), UniProt Q9UNQ0); assay: BCRP transfected MDCKII canine Mdr1 knockout permeability/efflux, Assay 9; settings: dog, Assay 9 Pe Ratio, efflux ratio Papp(B-A)/Papp(A-B), BCRP transfected MDCKII canine Mdr1 knockout
Method: BCRP transfected MDCKII cells (Assay 8) and BCRP transfected MDCKII canine Mdr1 knockout cells (Assay 9) were cultured and plated according to manufacturer's recommendations.
Both positive and negative controls were used to assess functionality of P-gp or BCRP efflux in the assays. Stock solutions for assay controls and the test article were prepared in DMSO for final test concentration of 1 μM. Final organic concentration in the assay was 1%. All dosing solutions contained 10 μM lucifer yellow to monitor MDCKII cell monolayer integrity.
For the apical to basolateral determination (A to B), 75 μL of the test article in transport buffer were added to the apical side of the individual transwells and 250 μL of basolateral media, without compound or lucifer yellow, were added to each well. For the basolateral to apical determination (B to A), 250 μL of test article in transport buffer were added to each well and 75 μL transport buffer, without compound or lucifer yellow, were added to each transwell. All tests were performed in triplicate, and each compound was tested for both apical to basolateral and basolateral to apical transport. The plates were incubated for 2 hours on a Lab-Line Instruments Titer Orbital Shaker (VWR, West Chester, PA) at 50 rpm and 37° C. with 5% CO2. All culture plates were removed from the incubator, 50 μL of media were removed from the apical and basolateral portion of each well, and added to 150 μL of 1 μM labetalol in 2:1 acetonitrile (ACN): H2O, v/v.
The plates were read using a Molecular Devices (Sunnyvale, CA) Gemini Fluorometer to evaluate the lucifer yellow concentrations at excitation/emission wavelengths of 425/535 nm. […] The plates were sealed, and the contents of each well analyzed by LC MS/MS. The compound concentrations were determined from the ratio of the peak areas of the compound to the internal standard (labetalol) in comparison to the dosing solution.
A MDS Sciex API 4000 (Applied Biosystems, Foster City, CA) mass spectrometer was used for detection of the analytes in the ion spray positive mode. Analyte responses were measured by multiple reaction monitoring (“MRM”) of transitions unique to each compound (the protonated precursor ion and selected product ions for each test article and m/z 329 to m/z 162 for labetalol, the internal standard.
The total run time, including re-equilibration, for a single injection was 1.2 minutes. […] The total run time, including re-equilibration, for a single injection was 0.61 minutes.
An efflux ratio is calculated from the mean apical to basolateral (A-B) Papp data and basolateral to apical (B-A) Papp data: Efflux ratio=Papp(B−A)/Papp(A−B)

[3] = LLC-PK1, Assay 6 Pe Ratio, efflux ratio Papp(B-A)/Papp(A-B), MDR1 transfected LLC-PK1

ErbB2 with Exon 20 YVMA insertion (HER2-YVMA), sequence (P04626 other isoform, or with tags, fused parts or gaps ins YVMA behind 775): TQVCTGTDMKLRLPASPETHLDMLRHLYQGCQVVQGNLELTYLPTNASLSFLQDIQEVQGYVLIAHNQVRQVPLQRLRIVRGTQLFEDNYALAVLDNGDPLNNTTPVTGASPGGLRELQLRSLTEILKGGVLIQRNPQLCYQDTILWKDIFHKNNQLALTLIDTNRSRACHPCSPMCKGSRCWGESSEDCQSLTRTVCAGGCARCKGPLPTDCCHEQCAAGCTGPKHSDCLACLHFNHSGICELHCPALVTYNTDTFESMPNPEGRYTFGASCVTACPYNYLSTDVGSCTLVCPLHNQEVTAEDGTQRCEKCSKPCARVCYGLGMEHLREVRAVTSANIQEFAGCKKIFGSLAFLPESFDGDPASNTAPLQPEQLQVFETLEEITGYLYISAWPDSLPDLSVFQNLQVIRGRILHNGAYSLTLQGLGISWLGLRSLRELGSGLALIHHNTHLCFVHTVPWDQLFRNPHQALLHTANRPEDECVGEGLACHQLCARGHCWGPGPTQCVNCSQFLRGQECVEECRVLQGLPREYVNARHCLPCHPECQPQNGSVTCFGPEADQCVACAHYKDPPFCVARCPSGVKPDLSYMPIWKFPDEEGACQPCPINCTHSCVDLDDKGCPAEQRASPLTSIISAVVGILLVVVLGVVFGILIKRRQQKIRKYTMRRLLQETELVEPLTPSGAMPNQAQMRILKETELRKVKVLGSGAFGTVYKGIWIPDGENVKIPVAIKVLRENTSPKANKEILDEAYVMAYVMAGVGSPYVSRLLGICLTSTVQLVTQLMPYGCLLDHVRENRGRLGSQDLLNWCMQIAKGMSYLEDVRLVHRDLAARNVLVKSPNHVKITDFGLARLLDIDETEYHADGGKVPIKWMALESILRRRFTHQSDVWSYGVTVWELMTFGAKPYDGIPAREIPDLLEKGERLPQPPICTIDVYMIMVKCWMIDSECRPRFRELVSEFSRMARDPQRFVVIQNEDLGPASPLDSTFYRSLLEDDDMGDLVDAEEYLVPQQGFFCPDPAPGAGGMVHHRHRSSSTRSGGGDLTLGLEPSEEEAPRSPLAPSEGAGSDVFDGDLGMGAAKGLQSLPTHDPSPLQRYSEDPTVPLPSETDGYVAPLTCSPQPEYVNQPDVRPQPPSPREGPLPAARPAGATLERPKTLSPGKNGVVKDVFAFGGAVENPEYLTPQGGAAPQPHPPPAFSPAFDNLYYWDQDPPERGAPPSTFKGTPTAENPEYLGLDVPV
BCRP, sequence (Q9UNQ0 whole entry): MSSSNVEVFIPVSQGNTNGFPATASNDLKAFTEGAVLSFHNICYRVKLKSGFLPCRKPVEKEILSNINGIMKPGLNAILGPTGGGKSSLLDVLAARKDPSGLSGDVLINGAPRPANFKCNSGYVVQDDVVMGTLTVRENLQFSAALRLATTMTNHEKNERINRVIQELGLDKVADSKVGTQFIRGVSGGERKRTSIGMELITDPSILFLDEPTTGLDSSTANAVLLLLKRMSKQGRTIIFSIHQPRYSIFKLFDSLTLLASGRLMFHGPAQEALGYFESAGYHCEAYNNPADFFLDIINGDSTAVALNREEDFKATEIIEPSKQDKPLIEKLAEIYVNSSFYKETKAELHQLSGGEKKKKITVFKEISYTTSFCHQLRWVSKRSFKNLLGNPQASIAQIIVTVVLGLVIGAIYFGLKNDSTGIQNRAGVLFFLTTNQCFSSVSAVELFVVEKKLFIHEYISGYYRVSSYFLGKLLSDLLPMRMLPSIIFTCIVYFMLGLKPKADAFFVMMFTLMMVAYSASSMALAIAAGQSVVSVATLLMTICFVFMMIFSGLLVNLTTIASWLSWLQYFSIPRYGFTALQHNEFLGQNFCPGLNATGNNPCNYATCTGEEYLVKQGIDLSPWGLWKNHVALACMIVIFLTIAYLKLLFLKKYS
ErbB2 WT, sequence (P04626 23-1255): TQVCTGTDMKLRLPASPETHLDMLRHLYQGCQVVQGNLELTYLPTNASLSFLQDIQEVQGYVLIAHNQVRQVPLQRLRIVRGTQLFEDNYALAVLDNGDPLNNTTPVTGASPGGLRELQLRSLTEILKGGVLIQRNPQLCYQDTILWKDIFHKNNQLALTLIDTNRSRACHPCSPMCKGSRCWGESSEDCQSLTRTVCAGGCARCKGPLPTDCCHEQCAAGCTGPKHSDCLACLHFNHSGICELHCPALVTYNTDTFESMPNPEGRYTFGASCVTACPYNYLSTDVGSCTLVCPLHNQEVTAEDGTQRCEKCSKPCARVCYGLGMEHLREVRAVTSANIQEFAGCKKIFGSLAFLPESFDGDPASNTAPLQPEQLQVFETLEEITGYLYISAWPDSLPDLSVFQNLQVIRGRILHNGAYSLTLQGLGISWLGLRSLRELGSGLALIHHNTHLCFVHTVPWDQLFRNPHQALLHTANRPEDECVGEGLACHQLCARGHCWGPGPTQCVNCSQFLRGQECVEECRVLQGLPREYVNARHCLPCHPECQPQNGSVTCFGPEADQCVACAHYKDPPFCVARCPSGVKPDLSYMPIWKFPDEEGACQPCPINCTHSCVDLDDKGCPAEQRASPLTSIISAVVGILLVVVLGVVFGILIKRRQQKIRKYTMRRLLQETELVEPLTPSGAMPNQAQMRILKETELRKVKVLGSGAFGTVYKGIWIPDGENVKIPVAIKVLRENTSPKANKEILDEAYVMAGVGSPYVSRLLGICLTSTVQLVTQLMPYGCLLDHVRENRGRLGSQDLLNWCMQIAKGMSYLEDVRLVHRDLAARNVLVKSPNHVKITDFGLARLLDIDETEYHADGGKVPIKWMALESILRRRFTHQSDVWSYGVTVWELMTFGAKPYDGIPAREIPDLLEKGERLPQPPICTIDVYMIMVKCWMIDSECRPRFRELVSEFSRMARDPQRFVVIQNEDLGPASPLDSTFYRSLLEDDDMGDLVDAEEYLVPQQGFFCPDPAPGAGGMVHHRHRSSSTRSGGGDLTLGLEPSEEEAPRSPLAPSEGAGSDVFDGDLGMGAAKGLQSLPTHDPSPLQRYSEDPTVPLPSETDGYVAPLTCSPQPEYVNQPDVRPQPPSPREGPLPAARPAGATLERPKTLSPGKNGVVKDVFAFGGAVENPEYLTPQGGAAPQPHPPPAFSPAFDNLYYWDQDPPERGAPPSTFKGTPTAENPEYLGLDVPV
EGFR wild type (EGFR WT), sequence (P00533 25-1210): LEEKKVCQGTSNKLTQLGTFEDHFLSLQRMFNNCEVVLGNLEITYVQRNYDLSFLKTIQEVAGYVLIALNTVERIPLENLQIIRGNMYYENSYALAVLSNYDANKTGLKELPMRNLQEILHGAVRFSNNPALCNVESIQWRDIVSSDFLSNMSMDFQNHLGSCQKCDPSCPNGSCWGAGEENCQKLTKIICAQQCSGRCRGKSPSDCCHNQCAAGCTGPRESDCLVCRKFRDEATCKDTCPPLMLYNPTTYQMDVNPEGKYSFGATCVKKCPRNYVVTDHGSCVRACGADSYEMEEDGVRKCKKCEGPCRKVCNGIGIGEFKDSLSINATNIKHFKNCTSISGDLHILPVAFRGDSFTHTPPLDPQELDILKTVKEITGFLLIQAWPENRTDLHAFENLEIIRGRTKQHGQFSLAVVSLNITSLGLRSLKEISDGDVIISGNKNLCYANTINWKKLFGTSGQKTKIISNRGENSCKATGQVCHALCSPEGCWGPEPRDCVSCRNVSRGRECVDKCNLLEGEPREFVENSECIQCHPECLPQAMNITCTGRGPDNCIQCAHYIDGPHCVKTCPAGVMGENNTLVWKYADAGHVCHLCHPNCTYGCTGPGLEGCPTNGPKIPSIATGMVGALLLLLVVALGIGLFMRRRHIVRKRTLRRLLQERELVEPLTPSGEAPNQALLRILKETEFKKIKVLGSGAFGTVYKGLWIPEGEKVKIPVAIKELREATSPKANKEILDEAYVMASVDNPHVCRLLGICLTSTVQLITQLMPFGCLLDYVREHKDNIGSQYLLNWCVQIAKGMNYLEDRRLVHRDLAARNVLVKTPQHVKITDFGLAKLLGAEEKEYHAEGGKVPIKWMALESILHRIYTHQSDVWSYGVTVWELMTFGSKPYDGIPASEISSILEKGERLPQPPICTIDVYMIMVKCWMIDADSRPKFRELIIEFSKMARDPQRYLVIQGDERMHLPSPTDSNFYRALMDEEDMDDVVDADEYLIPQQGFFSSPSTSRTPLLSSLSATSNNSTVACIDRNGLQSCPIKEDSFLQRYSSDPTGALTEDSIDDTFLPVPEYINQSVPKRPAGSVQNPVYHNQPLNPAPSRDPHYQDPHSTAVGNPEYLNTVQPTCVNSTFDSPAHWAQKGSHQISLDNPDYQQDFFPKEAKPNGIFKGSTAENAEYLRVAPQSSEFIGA

Row | SMILES | IC50 (ErbB2 WT) | IC50 [1] | IC50 ([2]; read-out: Assay 1 IC50) | IC50 (EGFR) | efflux ratio at 2 h, 1 μM (MDR1 (P-gp); LLC-PK1) | IC50 ([2]; Assay 1 IC50 (nM)) | IC50 (EGFR wild type (EGFR WT)) | efflux ratio at 2 h, 1 μM (MDR1 (P-gp); [3]) | efflux ratio at 2 h, 1 μM (BCRP)
1 | Cc1cc(Nc2ncnc3cnc(N4CCCC5(COC5)C4)nc23)ccc1Oc1ccc2c(c1)ncn2C [Example 45, N-(3-methyl-4-((1-methyl-1H-benzo[d]imidazol-5-yl)oxy)phenyl)-6-(2-oxa-6-azaspiro[3.5]nonan-6-yl)pyrimido[5,4-d]pyrimidin-4-amine] | 25 nM | 56.2 nM | 31 nM | 4740 nM | 2.2 |  |  |  | 
2 | Cc1cc(Nc2ncnc3cnc(N4CC5CC(C4)O5)nc23)ccc1Oc1ccc2c(c1)ncn2C.O=C(O)C(F)(F)F [Example 69, 6-(6-oxa-3-azabicyclo[3.1.1]heptan-3-yl)-N-(3-methyl-4-((1-methyl-1H-benzo[d]imidazol-5-yl)oxy)phenyl)pyrimido[5,4-d]pyrimidin-4-amine 2,2,2-trifluoroacetate] | 161 nM | 35.8 nM |  | ≥ 10000 nM | 2.6 | 27.6 nM |  |  | 
3 | Cc1cc(Nc2ncnc3cnc(N4CCCO4)nc23)ccc1Oc1ccc2c(c1)ncn2C [Example 178, 6-(isoxazolidin-2-yl)-N-(3-methyl-4-((1-methyl-1H-benzo[d]imidazol-5-yl)oxy)phenyl)pyrimido[5,4-d]pyrimidin-4-amine] |  | 9.9 nM | 20.9 nM | ≥ 10000 nM |  |  | ≥ 5000 nM | 3.7 | 
4 | COCCOC1CN(c2ncc3ncnc(Nc4ccc(Oc5ccc6c(c5)ncn6C)c(C)c4)c3n2)C1 [Example 240] | 77.7 nM | 66.5 nM | 41.3 nM | ≥ 10000 nM |  |  |  | 2.9 | 
5 | Cc1cc(Nc2ncnc3cnc(N(C)CC4(O)CCC4)nc23)ccc1Oc1ccc2c(c1)ncn2C [Example 164, 1-((methyl(8-((3-methyl-4-((1-methyl-1H-benzo[d]imidazol-5-yl)oxy)phenyl)amino)pyrimido[5,4-d]pyrimidin-2-yl)amino)methyl)cyclobutan-1-ol] | 52.3 nM | 9 nM | 28 nM | ≥ 10000 nM |  |  | ≥ 5000 nM |  | 2.2
6 | Cc1cc(Nc2ncnc3cnc(N(C)CC(C)(C)O)nc23)ccc1Oc1cc(F)c2c(c1)ncn2C [Example 203, 1-((8-((4-((7-fluoro-1-methyl-1H-benzo[d]imidazol-5-yl)oxy)-3-methylphenyl)amino)pyrimido[5,4-d]pyrimidin-2-yl)(methyl)amino)-2-methylpropan-2-ol] | 65.4 nM | 8.3 nM | 20.3 nM | 4580 nM |  |  | ≥ 5000 nM |  | 1.9
7 | CON1CCN(c2ncc3ncnc(Nc4ccc(Oc5ccc6c(c5)ncn6C)c(Cl)c4)c3n2)CC1.O=C(O)C(F)(F)F [Example 141, N-(3-chloro-4-((1-methyl-1H-benzo[d]imidazol-5-yl)oxy)phenyl)-6-(4-methoxypiperazin-1-yl)pyrimido[5,4-d]pyrimidin-4-amine 2,2,2-trifluoroacetate] | 25.9 nM | 17.1 nM |  | 4440 nM |  | 23.2 nM | ≥ 5000 nM |  | 1.4
8 | Cc1cc(Nc2ncnc3cnc(N4CC5COC(C5)C4)nc23)ccc1Oc1ccc2c(c1)ncn2C (centres unmarked) [Example 67, 6-(6-oxa-3-azabicyclo[3.2.1]octan-3-yl)-N-(3-methyl-4-((1-methyl-1H-benzo[d]imidazol-5-yl)oxy)phenyl)pyrimido[5,4-d]pyrimidin-4-amine] | 34.3 nM | 86.7 nM | 15.1 nM | ≥ 10000 nM |  |  |  | 2.1 | 
9 | Cc1cc(Nc2ncnc3cnc(N4CC[C@@H](C)C4=O)nc23)ccc1Oc1ccc2c(c1)ncn2C [Example 51, (R)-3-methyl-1-(8-((3-methyl-4-((1-methyl-1H-benzo[d]imidazol-5-yl)oxy)phenyl)amino)pyrimido[5,4-d]pyrimidin-2-yl)pyrrolidin-2-one] | 79.3 nM | 52.1 nM | 41.1 nM | ≥ 10000 nM |  |  |  | 4.4 | 
10 | CON(C)c1ncc2ncnc(Nc3ccc(Oc4ccc5c(c4)ncn5C)c(C)c3)c2n1 [Example 22, 6-(methoxy(methyl)amino)-N-(3-methyl-4-((1-methyl-1H-benzo[d]imidazol-5-yl)oxy)phenyl)pyrimido[5,4-d]pyrimidin-4-amine] | 52.4 nM | 13 nM | 25.5 nM | 8700 nM |  |  | ≥ 5000 nM |  | 
11 | CN(c1ncc2ncnc(Nc3ccc(Oc4ccn5ncnc5c4)c(Cl)c3)c2n1)[C@@H]1CCCOC1 [Example 368] | 4.8 nM | 17.4 nM | 3.6 nM | 303 nM |  |  | ≥ 5000 nM |  | 
12 | Cn1cnc2cc(Oc3ccc(Nc4ncnc5cnc(N6C[C@@H]7[C@@H](C#N)[C@@H]7C6)nc45)cc3Cl)ccc21 [Example 393] | 237 nM | 43.2 nM | 63.3 nM | ≥ 10000 nM |  |  | ≥ 5000 nM |  | 
13 | Cc1cc(Nc2ncnc3cnc(N4CC[C@]45CCOC5)nc23)ccc1Oc1ccc2c(c1)ncn2C (single isomer, unassigned) [Example 93b] | 11.6 nM | 13.9 nM | 16.2 nM | 1350 nM |  |  | ≥ 5000 nM |  | 
14 | CON1CCN(c2ncc3ncnc(Nc4ccc(Oc5ccc6c(c5)ncn6C)c(C)c4Cl)c3n2)CC1 [Example 98, N-(2-chloro-3-methyl-4-((1-methyl-1H-benzo[d]imidazol-5-yl)oxy)phenyl)-6-(4-methoxypiperazin-1-yl)pyrimido[5,4-d]pyrimidin-4-amine] | 1950 nM | 266 nM | 232 nM | ≥ 10000 nM |  |  | ≥ 5000 nM |  | 
15 | Cc1cc(Nc2ncnc3cnc(N4CCC45COC5)nc23)ccc1Oc1ccn2ncnc2c1 [Example 369] | 37.1 nM | 151 nM | 7.3 nM | 3870 nM |  |  | ≥ 5000 nM |  | 
16 | Cc1cc(Nc2ncnc3cnc(N(C)[C@H]4CCCOC4)nc23)ccc1Oc1ccn2ncnc2c1 [Example 349] | 24 nM | 116 nM | 18.9 nM | 1290 nM |  |  | ≥ 5000 nM |  | 
17 | Cc1cc(Nc2ncnc3cnc(N4C[C@H]5C[C@@H]4CO5)nc23)ccc1Oc1ccn2ncnc2c1 [Example 121, N-(4-([1,2,4]triazolo[1,5-a]pyridin-7-yloxy)-3-methylphenyl)-6-((1R,4R)-2-oxa-5-azabicyclo[2.2.1]heptan-5-yl)pyrimido[5,4-d]pyrimidin-4-amine] | 121 nM | 667 nM | 32.4 nM | ≥ 10000 nM |  |  | ≥ 5000 nM |  | 
18 | Cc1cc(Nc2ncnc3cnc(N4CCCO4)nc23)ccc1Oc1cc(F)c2c(c1)ncn2C [Example 155, N-(4-((7-fluoro-1-methyl-1H-benzo[d]imidazol-5-yl)oxy)-3-methylphenyl)-6-(isoxazolidin-2-yl)pyrimido[5,4-d]pyrimidin-4-amine] | 52.9 nM | 5.5 nM | 22.5 nM | 4280 nM |  |  | ≥ 5000 nM |  | 
19 | Cc1cc(Nc2ncnc3cnc(N4CCN5C(=O)COC[C@H]5C4)nc23)ccc1Oc1ccc2c(c1)ncn2C [Example 346] | 60.4 nM | 20.3 nM | 39.5 nM | ≥ 10000 nM |  |  | ≥ 5000 nM |  | 
